Measurements reported in PubChem BioAssay AID256 (DTP/NCI, 2004).
Several values for one entry are separate records, joined by “and”; a condition that tells them apart may be missing. Equal entries are not always repeated. Inconclusive results and toxic doses are left out. The calls were made as follows: active = survival T/C of 150% or more; inactive = T/C below 125% in these data.

Tested on: CD2F1 mice, L1210 leukemia ip, survival T/C
Assay: NCI In Vivo Anticancer Drug Screen. Data for tumor model L1210 Leukemia (intraperitoneal) in CD2F1 (CDF1) mice
Conditions: endpoint: mean survival time, higher = longer survival
Method in brief: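 Tumor-bearing mice (transplanted tumor) were split into treated and vehicle control groups, and the measured endpoint of each treated group was divided by that of its vehicle controls.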

Measured: T/C

Nc1nc(=S)c2ncn(C3CC(O)C(CO)O3)c2[nH]1 (stereo not given)
active: dose: 1.25 mg/kg/injection, schedule: Q01DX005 (ip), vehicle: saline 150 % of control | dose: 5.0 mg/kg/injection, schedule: Q01DX005 (ip), vehicle: saline with Tween-80 154 % of control | dose: 5.0 mg/kg/injection, schedule: Q01DX005 (oral), vehicle: saline 160 % of control | dose: 5.0 mg/kg/injection, schedule: Q04DX003 (ip), vehicle: water 153 % of control | dose: 8.0 mg/kg/injection, schedule: Q01DX009 (ip), vehicle: saline 151 % of control | dose: 10.0 mg/kg/injection, schedule: Q01DX005 (ip), vehicle: saline 151 % of control | dose: 10.0 mg/kg/injection, schedule: Q01DX005 (oral), vehicle: saline 156 % of control | dose: 10.0 mg/kg/injection, schedule: Q04DX003 (ip), vehicle: suspension in saline 154 % of control | dose: 10.0 mg/kg/injection, schedule: Q04DX003 (iv), vehicle: suspension in saline 177 % of control | dose: 16.0 mg/kg/injection, schedule: Q01DX005 (ip), vehicle: saline 161 % of control | dose: 16.0 mg/kg/injection, schedule: Q01DX009 (ip), vehicle: saline 170 % of control | dose: 16.0 mg/kg/injection, schedule: Q01DX009 (sc), vehicle: saline 151 % of control | dose: 20.0 mg/kg/injection, schedule: Q01DX005 (oral), vehicle: saline 151 % of control | dose: 20.0 mg/kg/injection, schedule: Q03HX008 (ip), vehicle: saline 152 % of control | dose: 20.0 mg/kg/injection, schedule: Q03HX024 (ip), vehicle: saline 150 % of control | dose: 20.0 mg/kg/injection, schedule: Q04DX003 (ip), vehicle: saline 157 % of control | dose: 20.0 mg/kg/injection, schedule: Q04DX003 (ip), vehicle: suspension in saline 159 % of control | dose: 20.0 mg/kg/injection, schedule: Q04DX003 (iv), vehicle: suspension in saline 159 % of control | dose: 32.0 mg/kg/injection, schedule: Q01DX005 (ip), vehicle: saline 152 % of control | dose: 32.0 mg/kg/injection, schedule: Q01DX009 (ip), vehicle: saline 157 % of control | dose: 32.0 mg/kg/injection, schedule: Q01DX009 (sc), vehicle: saline 150 % of control | dose: 37.5 mg/kg/injection, schedule: Q04DX003 (ip), vehicle: saline 163 % of control | dose: 40.0 mg/kg/injection, schedule: Q03HX008 (ip), vehicle: saline 157 % of control | dose: 40.0 mg/kg/injection, schedule: Q03HX016 (ip), vehicle: saline 156 % of control | dose: 40.0 mg/kg/injection, schedule: Q03HX024 (ip), vehicle: saline 159 % of control | dose: 40.0 mg/kg/injection, schedule: Q04DX003 (ip), vehicle: saline 178 % of control | dose: 40.0 mg/kg/injection, schedule: Q04DX003 (ip), vehicle: suspension in saline 151 % of control | dose: 40.0 mg/kg/injection, schedule: Q04DX003 (iv), vehicle: suspension in saline 189 % of control | dose: 40.0 mg/kg/injection, schedule: Q08DX002 (ip), vehicle: saline 152 % of control | dose: 75.0 mg/kg/injection, schedule: Q04DX003 (ip), vehicle: saline 154 % of control | dose: 80.0 mg/kg/injection, schedule: Q01DX001 (ip), vehicle: saline 154 % of control | dose: 80.0 mg/kg/injection, schedule: Q03HX008 (ip), vehicle: saline 161 % of control | dose: 80.0 mg/kg/injection, schedule: Q03HX016 (ip), vehicle: saline 168 % of control | dose: 80.0 mg/kg/injection, schedule: Q03HX024 (ip), vehicle: saline 161 % of control | dose: 80.0 mg/kg/injection, schedule: Q04DX003 (ip), vehicle: saline 174 % of control | dose: 80.0 mg/kg/injection, schedule: Q04DX003 (ip), vehicle: suspension in saline 154 % of control | dose: 80.0 mg/kg/injection, schedule: Q04DX003 (iv), vehicle: suspension in saline 162 % of control | dose: 80.0 mg/kg/injection, schedule: Q08DX002 (ip), vehicle: saline 154 % of control | dose: 116.0 mg/kg/injection, schedule: Q01DX009 (ip), vehicle: water 150 % of control | dose: 150.0 mg/kg/injection, schedule: Q04DX003 (ip), vehicle: saline 152 % of control | dose: 160.0 mg/kg/injection, schedule: Q03HX008 (ip), vehicle: saline 160 % of control | dose: 160.0 mg/kg/injection, schedule: Q03HX016 (ip), vehicle: saline 174 % of control | dose: 160.0 mg/kg/injection, schedule: Q03HX024 (ip), vehicle: saline 155 % of control | dose: 160.0 mg/kg/injection, schedule: Q04DX003 (ip), vehicle: saline 162 % of control | dose: 160.0 mg/kg/injection, schedule: Q08DX002 (ip), vehicle: saline 158 % of control and 152 % of control | dose: 240.0 mg/kg/injection, schedule: Q01DX001 (oral), vehicle: saline 152 % of control | dose: 320.0 mg/kg/injection, schedule: Q01DX001 (oral), vehicle: saline 152 % of control | dose: 320.0 mg/kg/injection, schedule: Q03HX008 (ip), vehicle: saline 162 % of control | dose: 320.0 mg/kg/injection, schedule: Q03HX016 (ip), vehicle: saline 158 % of control
inactive: dose: 2.5 mg/kg/injection, schedule: Q01DX001 (ip), vehicle: steriod suspending solution 123 % of control | dose: 4.0 mg/kg/injection, schedule: Q01DX009 (sc), vehicle: saline 108 % of control | dose: 8.0 mg/kg/injection, schedule: Q01DX009 (sc), vehicle: saline 106 % of control | dose: 10.0 mg/kg/injection, schedule: Q01DX005 (ip), vehicle: saline with Tween-80 120 % of control | dose: 16.0 mg/kg/injection, schedule: Q01DX009 (ip), vehicle: water 108 % of control | dose: 20.0 mg/kg/injection, schedule: Q01DX001 (sc), vehicle: saline 121 % of control | dose: 24.0 mg/kg/injection, schedule: Q01DX009 (ip), vehicle: water 116 % of control and 103 % of control | dose: 24.0 mg/kg/injection, schedule: Q04DX003 (ip), vehicle: water 118 % of control | dose: 36.0 mg/kg/injection, schedule: Q01DX009 (ip), vehicle: water 103 % of control | dose: 36.0 mg/kg/injection, schedule: Q04DX003 (ip), vehicle: water 111 % of control | dose: 37.5 mg/kg/injection, schedule: Q04DX003 (ip), vehicle: clinical formulation 102 % of control | dose: 50.0 mg/kg/injection, schedule: Q01DX009 (ip), vehicle: water 107 % of control | dose: 50.0 mg/kg/injection, schedule: Q04DX003 (ip), vehicle: water 120 % of control and 103 % of control | dose: 64.0 mg/kg/injection, schedule: Q01DX009 (ip), vehicle: saline 123 % of control | dose: 75.0 mg/kg/injection, schedule: Q04DX003 (ip), vehicle: clinical formulation 111 % of control | dose: 76.0 mg/kg/injection, schedule: Q01DX009 (ip), vehicle: water 115 % of control | dose: 76.0 mg/kg/injection, schedule: Q04DX003 (ip), vehicle: water 122 % of control and 103 % of control | dose: 96.0 mg/kg/injection, schedule: Q01DX009 (oral), vehicle: saline 115 % of control | dose: 116.0 mg/kg/injection, schedule: Q01DX005 (ip), vehicle: water 117 % of control | dose: 116.0 mg/kg/injection, schedule: Q04DX003 (ip), vehicle: water 106 % of control | dose: 176.0 mg/kg/injection, schedule: Q01DX005 (ip), vehicle: water 105 % of control | dose: 176.0 mg/kg/injection, schedule: Q04DX003 (ip), vehicle: water 121 % of control | dose: 192.0 mg/kg/injection, schedule: Q01DX009 (oral), vehicle: saline 106 % of control | dose: 266.0 mg/kg/injection, schedule: Q01DX005 (ip), vehicle: water 88 % of control | dose: 266.0 mg/kg/injection, schedule: Q04DX003 (ip), vehicle: water 115 % of control | dose: 300.0 mg/kg/injection, schedule: Q04DX003 (ip), vehicle: saline 101 % of control | dose: 320.0 mg/kg/injection, schedule: Q04DX003 (ip), vehicle: suspension in saline 108 % of control

CN(C)N=Nc1ccc(S(N)(=O)=O)cc1
inactive: dose: 18.75 mg/kg/injection, schedule: Q01DX009 (ip), vehicle: Klucel (hydroxypropylcellulose) (HPC) 106 % of control | dose: 37.5 mg/kg/injection, schedule: Q01DX009 (ip), vehicle: Klucel (hydroxypropylcellulose) (HPC) 124 % of control | dose: 150.0 mg/kg/injection, schedule: Q01DX009 (ip), vehicle: Klucel (hydroxypropylcellulose) (HPC) 118 % of control

CN(C)[C@@H]1C(=O)C(C(=O)NCNC(Cc2ccc(N(CCCl)CCCl)cc2)C(=O)O)=C(O)[C@@]2(O)C(=O)C3=C(O)c4c(O)cccc4[C@@](C)(O)[C@H]3C[C@@H]12 (stereo not given in full)
active: dose: 100.0 mg/kg/injection, schedule: Q01DX001 (ip), vehicle: other 164 % of control
